From the supplement of paper PMC10307832

How the values were obtained:
Experiment in all cases: relative viability (nuclei count vs DMSO), 5 days (fraction); higher = more cells survive
Linsitinib + Dasatinib = compound: C[C@]1(O)C[C@@H](c2nc(-c3ccc4ccc(-c5ccccc5)nc4c3)c3c(N)nccn32)C1 [Linsitinib] + Cc1nc(Nc2ncc(C(=O)Nc3c(C)cccc3Cl)s2)cc(N2CCN(CCO)CC2)n1 [Dasatinib] (partner 0.075 µM)
Procedure, shortened: (§1)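 After 5 days of treatment, lung cancer cells in 1536-well plates were fixed and stained in a single step (final 0.05% Triton X-100, 1% formaldehyde, 1 ug/ml Hoechst) and their nuclei counted on 4× images. Treatment had been applied by pin tool the day after seeding as one drug alone or as a fixed anchor-drug dose with five library-drug doses (not always all listed) in √10 steps. Relative viability is the nuclei count of treated wells divided by that of vehicle wells, and values are medians of duplicate plates.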

Ispinesib + Alpelisib = compound: Cc1ccc(C(=O)N(CCCN)[C@@H](c2nc3cc(Cl)ccc3c(=O)n2Cc2ccccc2)C(C)C)cc1 [Ispinesib] + Cc1nc(NC(=O)N2CCC[C@H]2C(N)=O)sc1-c1ccnc(C(C)(C)C(F)(F)F)c1 [Alpelisib] (partner 2 µM)
Procedure, shortened: as §1

Ispinesib + Luminespib = compound: Cc1ccc(C(=O)N(CCCN)[C@@H](c2nc3cc(Cl)ccc3c(=O)n2Cc2ccccc2)C(C)C)cc1 [Ispinesib] + CCNC(=O)c1noc(-c2cc(C(C)C)c(O)cc2O)c1-c1ccc(CN2CCOCC2)cc1 [Luminespib] (partner 0.01 µM)
Procedure, shortened: as §1

Linsitinib + Tozasertib = compound: C[C@]1(O)C[C@@H](c2nc(-c3ccc4ccc(-c5ccccc5)nc4c3)c3c(N)nccn32)C1 [Linsitinib] + Cc1cc(Nc2cc(N3CCN(C)CC3)nc(Sc3ccc(NC(=O)C4CC4)cc3)n2)n[nH]1 [Tozasertib] (partner 0.1 µM)
Procedure, shortened: as §1

Row | Cell Line | relative viability (Linsitinib + Dasatinib; first compound 0.01 µM) | relative viability (Linsitinib + Dasatinib; first compound 0.03162 µM) | relative viability (Linsitinib + Dasatinib; first compound 0.1 µM) | relative viability (Linsitinib + Dasatinib; first compound 0.3162 µM) | relative viability (Linsitinib + Dasatinib; first compound 1 µM) | relative viability (Ispinesib + Alpelisib; first compound 0.001 µM) | relative viability (Ispinesib + Alpelisib; first compound 0.003162 µM) | relative viability (Ispinesib + Alpelisib; first compound 0.01 µM) | relative viability (Ispinesib + Alpelisib; first compound 0.03162 µM) | relative viability (Ispinesib + Alpelisib; first compound 0.1 µM) | relative viability (Ispinesib + Luminespib; first compound 0.001 µM) | relative viability (Ispinesib + Luminespib; first compound 0.003162 µM) | relative viability (Ispinesib + Luminespib; first compound 0.01 µM) | relative viability (Ispinesib + Luminespib; first compound 0.03162 µM) | relative viability (Ispinesib + Luminespib; first compound 0.1 µM) | relative viability (Linsitinib + Tozasertib; first compound 0.01 µM) | relative viability (Linsitinib + Tozasertib; first compound 0.03162 µM) | relative viability (Linsitinib + Tozasertib; first compound 0.1 µM) | relative viability (Linsitinib + Tozasertib; first compound 0.3162 µM) | relative viability (Linsitinib + Tozasertib; first compound 1 µM)
1 | PC-14 | 0.285 | 0.274 | 0.282 | 0.202 | 0.19 | 1.01 | 1.05 | 1.05 | 0.942 | 0.174 | 0.168 | 0.13 | 0.131 | 0.131 | 0.125 | 0.559 | 0.542 | 0.578 | 0.486 | 0.427
2 | NCI-H2009 | 0.285 | 0.262 | 0.274 | – | 0.2 | 1.16 | 1.18 | 1.33 | 1.04 | 0.463 | 1.12 | 1.13 | 1.19 | 0.769 | 0.251 | 0.72 | 0.63 | 0.743 | – | 0.629
3 | NCI-H1395 | 0.425 | 0.372 | 0.399 | 0.441 | 0.43 | 1.14 | 0.945 | 0.87 | 0.398 | 0.493 | 0.793 | 0.769 | 0.817 | 0.655 | 0.447 | 0.838 | 0.768 | 0.723 | 0.731 | 0.667
4 | NCI-H1437 | 0.352 | 0.308 | 0.463 | 0.505 | 0.463 | 1.11 | 1.14 | 0.972 | 0.893 | 0.272 | 1.16 | 1.22 | 1.26 | 1.22 | 0.994 | 0.388 | 0.352 | 0.444 | 0.333 | 0.451
5 | NCI-H647 | 0.206 | 0.203 | 0.165 | – | 0.158 | 1.38 | 1.26 | 1.66 | 0.192 | 0.14 | 0.172 | 0.28 | 0.233 | 0.229 | 0.151 | 0.342 | 0.262 | 0.319 | – | 0.217
6 | NCI-H1793 | 0.434 | 0.367 | 0.382 | 0.332 | 0.392 | 0.677 | 0.713 | 1.17 | 0.783 | 0.328 | 0.198 | 0.169 | 0.749 | 0.144 | 0.162 | 0.388 | 0.454 | 0.316 | 0.313 | 0.274
7 | SK-MES-1 | 0.297 | 0.351 | 0.257 | 0.323 | 0.289 | 0.905 | 1.42 | 1.07 | 0.681 | 0.286 | 0.954 | 0.691 | 0.966 | 0.203 | 0.221 | 0.92 | 0.895 | 0.927 | 0.8 | 0.676
8 | NCI-H2087 | 0.756 | 0.917 | 0.819 | 0.549 | 0.624 | 0.992 | 1.2 | 1.28 | 1.02 | 0.159 | 0.168 | 0.159 | 0.189 | 0.14 | 0.151 | 0.219 | 0.259 | 0.196 | 0.141 | 0.203
9 | BEN | 0.419 | 0.316 | 0.318 | – | 0.352 | 1.06 | 1.13 | 1.12 | 0.758 | 0.353 | 0.617 | 0.576 | 0.237 | 0.247 | 0.234 | 0.537 | 0.611 | 0.481 | 0.377 | 0.486
10 | NCI-H3122 | 0.846 | 0.808 | 0.765 | 0.218 | 0.514 | 0.783 | 0.86 | 0.778 | 0.897 | 0.223 | 0.105 | 0.12 | 0.0892 | 0.0855 | 0.0889 | 0.458 | 0.373 | 0.437 | – | 0.425
11 | LCLC-97TM1 | 0.842 | 0.64 | 0.842 | 0.602 | 0.614 | 0.282 | 0.23 | 0.324 | 0.211 | 0.159 | 0.781 | 0.765 | 0.886 | 0.807 | 0.487 | 0.193 | 0.29 | 0.174 | 0.159 | 0.257
12 | NCI-H2228 | 0.48 | 0.483 | 0.52 | 0.421 | 0.387 | 0.632 | 0.582 | 1.14 | 0.522 | 0.325 | 0.121 | 0.14 | 0.228 | 0.127 | 0.159 | 0.273 | 0.308 | 0.272 | 0.296 | 0.199
13 | COR-L23 | 0.424 | 0.456 | 0.416 | 0.375 | 0.346 | 0.827 | 0.948 | 1.08 | 0.144 | 0.16 | 0.805 | 0.815 | 0.824 | 0.356 | 0.215 | 0.196 | 0.207 | 0.396 | 0.174 | 0.152
14 | EMC-BAC-2 | 0.318 | 0.323 | 0.289 | 0.445 | 0.197 | 0.815 | 0.752 | 0.917 | 0.548 | 0.526 | 0.797 | 1.32 | 1.36 | 1.13 | 0.6 | 0.294 | 0.271 | 0.291 | 0.206 | 0.255
15 | NCI-H1944 | 0.224 | 0.237 | 0.196 | 0.236 | 0.162 | 0.861 | 0.803 | 0.851 | 0.508 | 0.634 | 0.75 | 0.781 | 0.968 | 0.475 | 0.617 | 0.247 | 0.256 | 0.235 | 0.209 | 0.221
16 | A-427 | 0.712 | 0.78 | 0.723 | – | 0.631 | 1.1 | 1.21 | 0.993 | 1 | 1.04 | 1 | 1.11 | 1.33 | 0.352 | 0.389 | 0.211 | 0.222 | 0.234 | – | 0.177
